Here are results for nine compounds from PubChem BioAssay (NCI).

Each structure is given as a SMILES string.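 In this assay, cells in 96-well plates receive the compound at five concentrations for 48 hours. Endpoints are linearly interpolated between the surrounding concentrations. GI50: concentration for 50% inhibition of growth. TGI is the concentration that stops growth completely.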 *1 amine or outer side, *2 acyl side, *3 side chain or, on linkers, in order; H or OH if unused. Where a SMILES comes first, the peptide text is derived from it. CO = O=C([*:1])[*:2]

Common to all, as to test: growth of human tumour cells (NCI), 48 h
Assay [1] has as its system COLO 205 colon.
For assay [2], the system named is OVCAR-5 ovarian.
For assay [3], the system named is CCRF-CEM leukemia.
Assay [4] has as its system OVCAR-4 ovarian.
Assay [5] deals with SF-295 CNS.
The test system of assay [6] is T-47D breast.
Assay [7] relates to KM12 colon.
Assay [8] relates to SF-539 CNS.
For assay [9], the system named is SK-MEL-28 melanoma.
The test system of assay [10] is MCF7 breast.

As for `Nc1ccn(C2OC(COP(=O)(O)O)C(O)C2O)c(=O)n1` (stereo not drawn), the TGI in assay [1] was over 100 µM; in [2], over 100 µM; in assay [3], 0.0742 µM; in assay [4] it was over 100 µM; in [5], over 100 µM; in assay [6], over 100 µM. For the same compound, the TGI is over 100 µM in assay [7], over 30.2 µM in assay [8], over 100 µM in assay [9] and over 100 µM in [10].
Regarding `CC1(C)CC2=NOS3=C2C(=NO3)C1c1ccccn1` (stereo not drawn), the TGI in [1] was 80.5 µM; in assay [2] it was over 100 µM; in assay [3] it was 78.4 µM; in assay [4] it was over 100 µM; in [5], over 100 µM; in assay [6] it was over 100 µM. Further, the TGI in [7], in assay [8], in [9] and in assay [10] was over 100 µM in each case.
For the compound `C[C@]12CC[C@@H]3c4ccc(OCC(=O)O)cc4CC[C@H]3[C@@H]1CCC2=O`, the TGI was over 100 µM in assay [1]; over 100 µM in assay [2]; 4.48 µM in assay [3]; over 100 µM in assay [4]; over 100 µM in assay [5]; over 100 µM in assay [6]. The TGI in [7], in assay [8], in [9] and in assay [10] was over 100 µM throughout.
With `COc1cc(-c2ccc(-[n+]3nc(-c4ccc([N+](=O)[O-])cc4)nn3-c3ccc([N+](=O)[O-])cc3)c(OC)c2)ccc1-[n+]1nc(-c2ccc([N+](=O)[O-])cc2)nn1-c1ccc([N+](=O)[O-])cc1`, the GI50 in assay [2] was 12.4 µM; in assay [3] it was 1.08 µM; in assay [4] it was 3.56 µM; in assay [5], 3.07 µM; in assay [6], 0.3 µM; in [7], 4.04 µM. Further, the GI50 in [8] was 1.8 µM; in [9], 18 µM; in assay [10], 1.75 µM. For the same compound, the TGI in assay [2] is 45.5 µM; in assay [3], over 100 µM; in [4] it was 55.7 µM; in assay [5], 16.1 µM; in assay [6], 5.75 µM; in assay [7], 21.4 µM. For the same compound, the TGI was 3.97 µM in assay [8], 64.4 µM in assay [9] and 4.47 µM in [10].
Regarding `CC(C)C(NC(=O)C(CCCN=C(N)N)NC(=O)NC(Cc1ccccc1)C(=O)O)C(=O)NC(C=O)CCCN=C(N)N` (stereo not drawn) ({Phe-CO}-Arg-Val-Arg-aldehyde; configuration not given here), the GI50 in assay [1], in assay [2], in assay [4], in assay [5], in assay [6] and in assay [7] was over 5 µM each time. Further, the GI50 in assay [8], in [9] and in [10] was over 5 µM each time. The TGI in [1], in assay [2], in [4], in assay [5], in assay [6] and in assay [7] was over 5 µM throughout. The TGI in assay [8], in assay [9] and in assay [10] was over 5 µM each time.
Take `COc1cc(/C=C/C(=O)CC(=O)/C=C/c2ccc(OC(=O)CCNC34CC5CC(CC(C5)C3)C4)c(OC)c2)ccc1OC(=O)CCNC12CC3CC(CC(C3)C1)C2`: the GI50 is 4.71 µM in assay [1]; 4.34 µM in assay [2]; 11 µM in [4]; 2.56 µM in assay [5]; 5.89 µM in assay [6]; 2.95 µM in assay [7]. The GI50 in [8] was 2.09 µM; in assay [9], 3.79 µM; in assay [10], 2.36 µM. For the same compound, the TGI in assay [1] was 20.8 µM; in [2] it was 16.8 µM; in assay [4] it was over 100 µM; in assay [5], 6.99 µM; in [6] it was 59.8 µM; in [7] it was 7.8 µM. Also, the TGI in assay [8] was 4.81 µM; in assay [9], 17.2 µM; in assay [10], 9.89 µM.
Consider `O=C1NC(=O)[C@H]2C3C=CC([C@@H]12)[C@@H]1C(=O)NC(=O)[C@H]31`, for which the TGI in assay [1], in assay [2], in assay [3], in [5], in assay [6] and in assay [8] was over 100 µM in each case. The TGI in assay [9] and in assay [10] was over 100 µM throughout.
On to `COc1cc(/C=C2\C[C@H]3[C@@H]4CC=C5C[C@@H](OC(C)=O)CC[C@]5(C)[C@H]4CC[C@]3(C)[C@H]2OC(C)=O)ccc1OCCCn1ccnc1`, for which the GI50 in [1] was 11.6 µM; in assay [2], 12.7 µM; in [3] it was 11.3 µM; in [5], 4.77 µM; in assay [6] it was 16 µM; in assay [7], 8.31 µM. Moreover, the GI50 in [8] is 4.72 µM; in assay [9], 15.9 µM; in assay [10], 9.95 µM. For the same compound, the TGI was 38.5 µM in assay [1]; 33.6 µM in [2]; 40.9 µM in assay [3]; 12.4 µM in assay [5]; over 50 µM in [6]; 18.1 µM in assay [7]. Besides, the TGI in [8] was 12.5 µM; in assay [9], over 50 µM; in assay [10], 20.9 µM.
Take `CCC(=O)Nc1ccc2c(c1)CN1C(=O)c3ccccc3C1=N2`: the GI50 in assay [1], in assay [2], in assay [4], in [5], in assay [6] and in [7] was over 100 µM throughout. For the same compound, the GI50 in [8], in assay [9] and in [10] was over 100 µM throughout. Besides, the TGI in assay [1], in assay [2], in assay [4], in assay [5], in assay [6] and in assay [7] was over 100 µM throughout. For the same compound, the TGI in [8], in [9] and in assay [10] was over 100 µM each time.
